# According to PMC11123039, “The Helix Ring Peptide U11 from the Venom of the Ant, Tetramorium bicarinatum, Acts as a Putative Pore-Forming Toxin” (Membranes, 2024):
# Key:
# [1] = system: vertebrate and invertebrate cells; conditions: component of Apis mellifera venom; cited from earlier work
# From the text: Ant venom peptides have previously been classified based on their structure into three main groups: linear, dimeric or inhibitor cystine knot (ICK)-like peptides [for a review, see [2]]. An alternative approach for classification follows their biological activity, with two main characteristics: cytolytic or neurotoxic. […] Such a phenomenon is indicative of cytolysis or cytotoxicity and may be explained by pore formation. […] In non-injected control oocytes, the current ...
# Shaker IR = experiment: Two-electrode voltage clamp, Shaker IR; format: cell-based, Drosophila melanogaster; conditions: control toxin, 2.5 μM; Xenopus laevis oocytes, ND96, two-electrode voltage clamp
# [2] = system: voltage-gated sodium (Nav) channels; conditions: vertebrates and invertebrates; blocks synaptic transmission in insect CNS; cited from earlier work
# From the text: Ant venom peptides have previously been classified based on their structure into three main groups: linear, dimeric or inhibitor cystine knot (ICK)-like peptides [for a review, see [2]]. An alternative approach for classification follows their biological activity, with two main characteristics: cytolytic or neurotoxic. […] They often act as amphipathic, helical structures forming pores through biological membranes, disturbing t ...
substance,measurement,setting,value
melittin,cytolysis via pore formation,[1],cytolysis via a process of pore formation
charybdotoxin,block of Shaker IR currents,Shaker IR,clear block
poneratoxin,modulation of Nav channels,[2],modulate voltage-gated sodium (Nav) channels of both vertebrates and invertebrates
